These results are taken from PubChem BioAssay AID2305 (GlaxoSmithKline (GSK), 2010).

Where “and” joins values, the source holds several entries; their conditions need not be identical. Equal entries are not always repeated.

The assay has as its system P. falciparum 3D7 growth, pLDH absorbance. Put plainly: P. falciparum 3D7 growth inhibition, dose response, strain 3D7 (AID 2305).

As a reminder, the IC50 is the point on the concentration scale where inhibition reaches its midpoint. The molecule `Cc1sc2nc(CSc3ccccc3)nc(N3CCN(CC(=O)N4CCCC4)CC3)c2c1C` came in with an IC50 of 1260 nM.
As for `CN1CCN(Cc2cc3cc(NC(=O)/C=C/c4ccc(Cl)cc4)ccc3s2)CC1`, the 50% inhibitory concentration (IC50) was determined as 770 nM.
The figure for `O=C(NCCCCN1CCC(c2ccc3c(c2OCCO)CCCC3)CC1)c1ccc2oc(-c3ccc(C(F)(F)F)cc3)cc2c1` is 340 nM; for `CN(C)Cc1cccc(-c2ccc3ccnc(N)c3c2)c1` it is 120 nM.
The figure for `COc1cccc(CCNC(C)Cc2ccc(OCCCCOc3ccccc3)cc2)c1` (stereo not given) is 740 nM; for `Cn1nc(-c2ccc(CN[C@@H]3CCc4ccc(O)cc43)cc2)c2cnc(NCCCN3CCCC3)nc21` it is 800 nM.
The same measure for `COc1ccc(CCN2CCC(NCc3cccc(N(C)C)c3)CC2)cc1`: 1320 nM; for `C#C[C@H]1O[C@@H](n2cnc3c(Nc4cc(Br)cc(C(F)(F)F)c4)ncnc32)[C@H](O)[C@@H]1O`: 1030 nM.
As for `CCOc1ccc(NC(=O)c2ccc(NCCCN3CC(C)CC(C)C3)c([N+](=O)[O-])c2)cc1` (stereo not given), the IC50 came to 710 nM.
As to `COc1ccc(-c2cnc3ccc(N4CCCC4)nn23)cc1OC`, the IC50 is 770 nM.
The same measure for `Cc1ccc(-c2noc(=O)n2CC(=O)Nc2ccccc2-c2ccccc2)cc1`: 810 nM.
The figure for `CCCN(CCC)C(=O)c1cc(C(=O)N[C@@H](Cc2ccccc2)[C@H](O)CNC(C)(C)c2cccc(C(F)(F)F)c2)cc(N2CCCCS2(=O)=O)c1` is 40 nM; for `CNC(=O)c1[nH]c(-c2ccccc2)nc1NC(C)=O` it is 150 nM; for `O=[N+]([O-])c1ccc(Nc2nc(NN=Cc3ccc(-c4ccc([N+](=O)[O-])cc4)o3)nc(Nc3ccccc3)n2)cc1` it is 640 nM.
The figure for `COc1ccc(OC)c(CNCC(O)c2cc(C(F)(F)F)cc(C(F)(F)F)c2)c1` (stereo not given) is 440 nM; for `CS(=O)(=O)c1ccc(CCNCc2ccc(-c3ccc(CN(C(=O)C4CC(=O)c5ccccc54)C4CCN(Cc5ccccc5)CC4)cc3)nc2)cc1` (stereo not given) it is 590 nM.
Consider `Cc1cc(=O)c(-c2ccc(Oc3cccc(C(F)(F)F)c3)cc2)c(C)[nH]1`, for which the half-inhibitory concentration (IC50) is 630 nM and 210 nM.
Take `CC(=O)Nc1ccc(C(=O)Nc2cccc(-c3cccc(-c4nc5c(C)cccc5[nH]4)c3)c2)cn1`: the IC50 was determined as 60 nM.
The figure for `Cc1cnc(NCC2CCCCC2)nc1N[C@@H](CC(C)C)C(=O)Nc1ccccc1` is 870 nM.
On to `Cc1ccc2c(c1[N+](=O)[O-])N=NCC2Oc1ccccc1` (stereo not given), for which the IC50 came to 870 nM.
The same measure for `Cc1nc(N)nc(N)c1-c1ccc(Br)c([N+](=O)[O-])c1`: 200 nM; for `O=S(=O)(NCCN1CCCC1)c1ccc(-c2cccc(CNC3Cc4ccccc4C3)c2)s1`: 750 nM.
As to `CC(C)(C)NC(=O)c1ccc(Oc2ccc(OC(F)(F)F)cc2)c(NC(=O)C(C)(C)C)c1`, the IC50 was 980 nM.
Regarding `N#Cc1ccc2c(c1)CCN(CCC1CCC(NC(=O)/C=C/c3ccc4[nH]ccc4c3)CC1)CC2` (stereo not given), the IC50 turned out to be 1060 nM.
As for `COc1ccc(CCn2c(=N)c(C(=O)NCc3cccnc3)cc3c(=O)n4ccccc4nc32)cc1`, the IC50 came out at 880 nM.
The figure for `CC(C)(C)CC(=O)Nc1ccc(Nc2cc(-c3ccncc3)cc3ncc(C(N)=O)cc23)cc1` is 700 nM.
Regarding `CC=CC(=O)N1CCN(c2nccc(-c3ccc(C(C)(C)C)cc3)n2)CC1`, the IC50 turned out to be 1080 nM.
The figure for `CCN(CC)c1ccc2nc(N)nc(N)c2c1` is 70 nM; for `COc1cc(CN2CCN(c3ccnc(N(C)C4CCN(C)CC4)n3)CC2)cc(Cl)c1O` it is 780 nM.
For the molecule `Nc1ncc(-c2ccsc2)c2ccc(-c3ccc4cn[nH]c4c3)cc12`, the IC50 was found to be 810 nM.
The molecule `COC(=O)c1ccc2c(-c3nc4ccc(OC)cc4[nH]3)c[nH]c2c1` had an IC50 of 880 nM.
Molecule `Cc1cc(C(=O)Nc2nc(-c3ccccn3)nc3ccsc23)no1` came in with an IC50 of 810 nM.
The same measure for `Clc1ccc2nnc(-c3c(Cl)cccc3Cl)n2n1`: 910 nM.
The figure for `O=C(/C=C/c1ccc(Cl)c(Cl)c1)NCCCCCN1CCC(NC(=O)Nc2cc(Cl)nc(Cl)c2)CC1` is 980 nM.
`NC(=O)C1CCN(Cc2cccc(-c3ccc(-c4nc5ccc(C(F)(F)F)cc5[nH]4)cc3)c2)CC1` showed an IC50 of 610 nM.
The same measure for `CC(C)(C)c1cc(C(=O)N2CCN(c3ncccc3C(F)(F)F)CC2)n(Cc2ccccc2)n1`: 250 nM; for `CC(C(=O)NC1CCN(c2ccnc(Nc3ccc(F)cc3)n2)C1)c1ccc(Cl)cc1` (stereo not given): 860 nM; for `CCN(CC)CCCNCc1ccc(-c2ccc(C(F)(F)F)cc2)cc1`: 990 nM.
The figure for `CC(CN(C)C)C(=O)Nc1ccc(-c2cccc(-c3nc4ccccc4[nH]3)c2)cc1` (stereo not given) is 720 nM.
With `COc1cc(Cc2c(C)nc3nc(N)nc(N)c3c2C)c(Br)c(OC)c1OC`, the IC50 was determined as 400 nM.
The figure for `O=C(Nc1ccc(-c2ccccc2)cc1)Nc1cccc(Cn2cnc(N3CCCNCC3)cc2=O)c1` is 1080 nM; for `Cc1cccc(Nc2nc(N[C@@H]3CCCNC3)nc3cc[nH]c(=O)c23)c1` it is 680 nM; for `CS(=O)(=O)CCNCc1nc(-c2ccc3c(Nc4ccc(Oc5ccccn5)cc4)ccnc3c2)cs1` it is 680 nM.
`CC(=O)N1N=C(c2ccc(Cl)cc2)Sc2c1nc(-c1ccccc1)n2C(C)=O` displayed an IC50 of 490 nM.
Regarding `O=[N+]([O-])c1ccc(N2CCCN(C(=S)Nc3ccc(F)cc3Br)CC2)nc1`, the IC50 came out at 300 nM.
`Cc1cccc2[nH]c(-c3cccc(-c4cccc(NC(=O)COc5ccccc5C(N)=O)c4)c3)nc12` had an IC50 of 160 nM.
The same measure for `Cc1cc(N(C)C2CCN(CC3CCCCC3)C2)nc(Nc2ccc(Br)cc2)n1` (stereo not given): 700 nM; for `CCCCCc1ccc(N2C(N)=NC(N)=NC2(C)C)cc1`: 130 nM.
Turning to `COc1ccc(CCc2ccc(-c3c(C)[nH]c(C)c(Cl)c3=O)cc2)cc1OC`, the 50% inhibitory concentration (IC50) worked out at 90 nM.
Molecule `COc1cc2c(cc1C(F)(F)F)N(C(=O)Nc1cc(F)cc(-c3cncnc3)c1)CC2` returned an IC50 of 500 nM.
The figure for `CCN1CCC(NCc2ccc(-c3ccc(Cl)s3)cc2)CC1` is 940 nM; for `COc1ccc(NC(=O)NC2CCN(CCCCCNC(=O)/C=C/c3ccc(Cl)c(Cl)c3)CC2)cc1` it is 1010 nM; for `COC(=O)c1cccc(NC(=O)NC2CCN(c3ccnc(Nc4ccc(OC)cc4)n3)C2)c1` (stereo not given) it is 470 nM.
The same measure for `Nc1cc(-c2ccc(Br)cc2O)nc2ccccc12`: 620 nM; for `CC(C)C[C@H](Nc1ccc(C#N)c2ccccc12)C(=O)NC(C)(C)C12CC3CC(CC(C3)C1)C2`: 920 nM; for `CN1CCCN(c2ccnc3cc4c(cc23)N(C(=O)c2ccccc2Cl)CC4)CC1`: 1180 nM.
The figure for `CCc1cn(C)c2c(N3CCCC3=O)cc(C(=O)N[C@@H](Cc3ccccc3)[C@H](O)CNC(C)(C)c3cccc(OC)c3)cc12` is 40 nM; for `C=CCO[C@@H]1O[C@H](COC(c2ccccc2)(c2ccccc2)c2ccccc2)[C@@H](OC(C)=O)[C@H](OC(C)=O)[C@H]1NC(C)=O` it is 660 nM; for `CC(C)CNCc1cccc(-c2cccc(CN(CCCN3CCN(C)CC3)C(=O)NC3CCCCC3)c2)c1` it is 760 nM.
Molecule `COc1ccc2nccc([C@@H](O)CN3CCC(NCc4cc5oc(=O)[nH]c5cc4F)CC3)c2c1` had an IC50 of 770 nM.
As for `CN(CCCCCNC(=O)/C=C/c1ccc(Cl)c(Cl)c1)CCc1c[nH]c2ccccc12`, the IC50 worked out at 870 nM.
The figure for `COc1ccc(CNc2nc(Nc3cccc(C#N)c3)nc(Nc3cccc(C#N)c3)n2)cc1Cl` is 180 nM.
The figure for `NC1=NC(c2ccccc2)(c2ccccc2)C(=O)N1CCCCc1ccccn1` is 1260 nM; for `Cc1[nH]c(/C=C2\C(=O)Nc3ccc(S(=O)(=O)Cc4c(Cl)cccc4Cl)cc32)c(C)c1C(=O)N1CCC[C@@H]1CN1CCCC1` it is 720 nM; for `NC(N)=NCCCN(Cc1ccccc1)c1ccc(Cl)cc1` it is 560 nM.
`N#Cc1ccc(S(=O)(=O)N2C(c3cccc([N+](=O)[O-])c3)C(C(=O)c3ccccc3)N(C3CCCCC3)C2c2cccc([N+](=O)[O-])c2)cc1` (stereo not given): the IC50 amounted to 1080 nM.
The same measure for `CN(C)CCNC(=O)c1ccc2c(c1)ncn2-c1cc(OCc2ccccc2C(F)(F)F)c(C(N)=O)s1` (tested in a mixture with another compound): 810 nM; for `CCOc1c(CNCCCCCCNCc2ccc3ccccc3c2OCC)ccc2ccccc12`: 760 nM.
With `Cc1cccc2[nH]cc(C3CCN(CC4CCC(NC(=O)/C=C/c5ccc(Cl)c(Cl)c5)CC4)CC3)c12` (stereo not given), the IC50 stood at 160 nM.
The figure for `COc1cc(O)c2c(=O)c(OC)c(-c3cccc(Cl)c3OCC(=O)O)oc2c1OC` is 590 nM; for `Cn1c(NC(=O)C2CCC(CNC(=O)c3ccc(O)c(-c4cccc([N+](=O)[O-])c4)c3)CC2)nc2ccccc21` (stereo not given) it is 980 nM.
The same measure for `Cc1c(S(=O)(=O)Nc2ccc3nccc(N4CCN[C@H](C)C4)c3c2)sc2ccc(Cl)cc12`: 840 nM; for `Cn1c(=O)c2cc(C(=O)NCCCN3CCCCCC3)sc2c2ccccc21`: 690 nM.
The same measure for `O=C(/C=C/c1ccc(Cl)c(Cl)c1)N1CCC(CN2CCC(c3c(-c4ccccc4)[nH]c4ccccc34)CC2)CC1`: 340 nM.
`N#Cc1c(N2CCCCCC2)nc(N)c2c(N)nc3c(c12)CC(=O)N3c1ccc(F)cc1` had an IC50 of 210 nM.
The figure for `OC1CCCN(Cc2ccc(-c3ccc(-c4nc5ccc(F)cc5[nH]4)s3)cc2)C1` (stereo not given) is 850 nM; for `COc1ccc(-n2nc(C)c3c2NC(=O)CC3c2ccccc2OCc2ccccc2F)cc1` (stereo not given) it is 900 nM; for `CCC(C)NS(=O)(=O)c1ccc2nc(Nc3ccc(C)c(Cl)c3)n(C3CCCCC3)c2c1` (stereo not given) it is 510 nM.
The figure for `CN(C)C(=O)CC(=O)NCc1cccc(Cl)c1` is 710 nM.
The same measure for `CCCc1ccc(NC(=O)c2ccc(CN3CCCN(CC4CCCCC4)CC3)cc2)cc1`: 520 nM; for `COc1cc(CNC[C@@H](O)[C@H](Cc2ccccc2)NC(=O)c2cc(OC(C)C)cc(N3CCCS3(=O)=O)c2)cc(OC)c1`: 800 nM.
Regarding `Nc1nc(N)c2c(ccn2Cc2cc3c(cc2Cl)OCO3)n1`, the IC50 is 760 nM.
The figure for `O=C(NC1CCN(Cc2ccccc2)CC1)c1ccc(-c2nc3cc(Cl)c(F)cc3[nH]2)cc1` is 250 nM; for `Cc1cc(C(=O)Nc2ccc(-c3ccccc3)cc2)no1` it is 690 nM; for `CCc1cc(CNC2CCN(CCc3c(F)cnc4ccc(OC)nc34)CC2)cc2c1OCCO2` it is 260 nM.
